Values after ≈ are worked out from the molar mass of the structure shown. Like-named read-outs stand apart in the source and are kept apart here.
Assays:
S. aureus ATCC 29213 = test: Antibacterial susceptibility (MIC), NCCLS broth microdilution; assay type: cell-based; settings: for Minimum inhibitory concentration, S. aureus ATCC 29213: CAMHB, 37° C., 18 h
Procedure, shortened: (§1)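 Two-fold serial dilutions in DMSO were tested in cation-adjusted Mueller Hinton broth, following NCCLS M26-A, at 5×10^5 c.f.u./mL with 1.25% DMSO final, in duplicate. Plates were incubated at 37 °C for 18 h. MIC was the lowest concentration inhibiting visible growth.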

[1] = tested on: S. aureus ATCC 13709^A, Novobiocin and Rifampicin resistant variant; test: as above; assay type: cell-based
Procedure, shortened: as §1

S. aureus ATCC 13709 [2] = test: microbe, parasite or virus in culture; assay type: cell-based; settings: for Serum dependence of antibacterial activity (in words): MIC with versus without serum; for MIC: Staphylococcus aureus, ATCC13709, 18 h
S. aureus ATCC 13709 [3] = test: microbe, parasite or virus in culture; assay type: cell-based; settings: for Minimum inhibitory concentration, S. aureus ATCC 13709: CAMHB, 37° C., 18 h
Procedure, shortened: as §1

[4] = tested on: Novobiocin resistant mutant strain of S. aureus ATCC 13709; test: Prophylactic efficacy in rat model of S. aureus bone infection; assay type: in vivo; settings: for Measured bacterial titer, test compound: 20 mg/kg parent drug equivalent, single intravenous bolus 1 day prior to infection, tibia 24 h postinfection
Procedure: To determine the in vivo activity of bisphosphonated prodrugs of Rifamycin derived antibacterials in comparison to their non-bisphosphonated parents, compounds 18, 19, 48a, 59, 66, 89, 95, 102, 110, 142b and 164 and their parent drug rifabutin were used as prophylactic therapeutics in an animal model of infection. Specifically, a spontaneous Novobiocin resistant mutant strain of S. aureus ATCC 13709 (a clinical osteomyelitis isolate), was grown overnight at 37° C. in brain heart infusion broth (BHIB). After 16 h of growth, cells were subcultured into fresh BHIB and incubated for 4 to 5 h at 37° C. The cells were washed twice with phosphate-buffered saline (PBS) and resuspended in BHIB supplemented with 10% (vol./vol.) fetal bovine serum at a density of approximately 10^10 colony forming units (CFU)/ml (based upon turbidimetry). The suspension was aliquoted and a portion was used to check the CFU count. The culture was stored frozen (−80° C.) and was used without subculture. For use as an inoculum the culture was thawed, diluted in PBS and kept in an ice bath until it was used.
Animals were infected as described by O'Reilly et al. (Antimicrobial Agents and Chemotherapy (1992), 36(12): 2693-97) to generate the bone infection. Female CD rats (age, 57 to 70 days; n=5/group; Charles River, St-Constant, Canada) were anaesthetized by isofluorane before and during the surgery. Following complete induction of anesthesia, the rat was placed ventral side up and hair was shaved from the surgical site. The skin over the leg was cleaned and disinfected (proviodine-ethanol 70%). A longitudinal incision below the knee joint was made in the sagital plane. The incision was made over the bone below the “knee joint” (tibia head or condyle) but not completely extending to the ankle. A high speed drill fitted with a 2 mm bulb bit was used to drill a hole into the medullar cavity of the tibia. Rats were injected intra-tibially with 0.05 ml 5% sodium morrhuate (sclerosing agent) and then with 0.05 ml of S. aureus suspension (ca. 2×10^7 CFU/rat). The hole was sealed by applying a small amount of dry dental cement which immediately absorbs fluids and adheres to the site. The wound was closed using 3 metal skin clips. Moxifloxacin (as a positive control) was injected once at 10 mg/kg intravenously 1 h postinfection in saline, while the Rifabutin derived prodrugs (prepared in 0.9% saline) were injected at the dose indicated in Table 3 as a single intravenous bolus at different time points prior to the infection.
Infected rats were sacrificed by CO2 asphyxiation 24 h postinfection to monitor the bacterial CFU count. Infected tibiae were removed, dissected free of soft tissue, and weighed. The bones were ground, 50 mg of charcoal were added and the powder was resuspended in 5 ml 0.9% NaCl, serially diluted and processed for quantitative cultures. Treatment efficacy was measured in terms of Log viable bacteria (Log CFU per gram of bone). […] The limit of detection is 2 Log CFU. Statistical comparisons of viable bacterial counts for the different treated and untreated groups were performed with the Dunnett's multiple-comparison test. Differences were considered significant when the P value was <0.05 when comparing treated infected animals to the untreated infected ones. The doses used, the amount of time separating the treatment from the time of infection and the treatment outcomes are shown in Table 3.

Compound	MIC (S. aureus ATCC 29213; Staphylococcus aureus, ATCC29213, 18 h, read-out: Minimum inhibitory concentration, S. aureus ATCC 29213) [µg/mL]	MIC ([1]; Staphylococcus aureus, ATCC13709, read-out: Minimum inhibitory concentration, S. aureus ATCC 13709^A) [µg/mL]	Serum dependence of antibacterial activity (in words) (S. aureus ATCC 13709 [2])	MIC (S. aureus ATCC 13709 [2]; read-out: Minimum inhibitory concentration, ATCC 13709 + 50% Human Serum) [µg/mL]	MIC (S. aureus ATCC 13709 [2]; read-out: Minimum inhibitory concentration, ATCC 13709 + 50% Mouse Serum) [µg/mL]	MIC (S. aureus ATCC 13709 [2]; read-out: Minimum inhibitory concentration, ATCC 13709 + 50% Rat Serum) [µg/mL]	MIC (S. aureus ATCC 13709 [3]; Staphylococcus aureus, ATCC13709, 18 h, read-out: Minimum inhibitory concentration, S. aureus ATCC 13709) [µg/mL]	Measured bacterial titer, test compound [4]	Minimum inhibitory concentration, S. aureus ATCC 29213 (S. aureus ATCC 29213) [µg/mL]	Minimum inhibitory concentration, S. aureus ATCC 13709^A [1] [µg/mL]	Minimum inhibitory concentration, ATCC 13709 + 50% Human Serum (S. aureus ATCC 13709 [2]) [µg/mL]	Minimum inhibitory concentration, ATCC 13709 + 50% Mouse Serum (S. aureus ATCC 13709 [2]) [µg/mL]	Minimum inhibitory concentration, ATCC 13709 + 50% Rat Serum (S. aureus ATCC 13709 [2]) [µg/mL]	Minimum inhibitory concentration, S. aureus ATCC 13709 (S. aureus ATCC 13709 [3]) [µg/mL]	Prophylactic activity in rat bone infection model (in words) ([4]; 20 mg/kg, 1 day or 5 days prior to infection)
CO[C@H]1/C=C/O[C@@]2(C)Oc3c(C)c(O)c4c(c3C2=O)C2=NC3(CCN(CC(C)C)CC3)NC2=C(NC(=O)/C(C)=C\C=C\[C@H](C)[C@H](OC(=O)CN(CCCCC(P(=O)(O)O)P(=O)(O)O)CCNC(=O)OCc2ccc(OC(C)=O)cc2)[C@@H](C)[C@@H](O)[C@@H](C)[C@H](OC(C)=O)[C@@H]1C)C4=O [Compound 66]	4 (≈ 2.92 µM)	> 128	significant increase in antibacterial activity in serum	4	0.125	0.008	4 (≈ 2.92 µM)	1.97 ± 0.05 Log CFU/g of bone							
CCC(=O)OCOC(=O)N[C@@H](CCC(=O)Nc1ccc(CC(P(=O)(O)O)P(=O)(O)O)cc1)C(=O)N(C)CC(=O)O[C@@H]1[C@@H](C)[C@@H](O)[C@@H](C)[C@H](OC(C)=O)[C@H](C)[C@@H](OC)/C=C/O[C@@]2(C)Oc3c(C)c(O)c4c(c3C2=O)C2=NC3(CCN(CC(C)C)CC3)NC2=C(NC(=O)/C(C)=C\C=C\[C@@H]1C)C4=O.N.N [Compound 110]			significant increase in antibacterial activity in serum					1.94 ± 0.04 Log CFU/g of bone	8	>128	8	0.125	0.0156	8	
CCC(=O)OCOC(=O)N(CCCC(P(=O)(O)O)P(=O)(O)O)CCOC(=O)N1C2=C3NC(=O)/C(C)=C\C=C\[C@H](C)[C@H](O)[C@@H](C)[C@@H](O)[C@@H](C)[C@H](OC(C)=O)[C@H](C)[C@@H](OC)/C=C/O[C@@]4(C)Oc5c(C)c(O)c(c(c5C4=O)C2=NC12CCN(CC(C)C)CC2)C3=O [Compound 164]			significant increase in antibacterial activity in serum					5.48 ± 0.64 Log CFU/g of bone	4 (≈ 3.12 µM)	>128	8	2	0.25	4 (≈ 3.12 µM)	ineffective at 1 day
